This series deals with HeLa cell. Put plainly: Cytotoxicity test (MTT, cell viability). The class given is cell-based. The settings on record: HeLa cells, concentrations of 1 nM to 100 nM, cultured for 6 hours, 24 hours, or 48 hours. The protocol:
HeLa cell was seeded on a 96-well plate at 6×10^3 per well and was cultured overnight. Aqueous solutions of the compound 4 at concentrations of 0.1 nM, 1 nM, 10 nM and 100 nM were prepared as test agents, and the test agent at each concentration was added to the well, and HeLa cells were further cultured for 6, 24, and 48 hours. After the culturing for each of the above hours, MTT (3-(4,5-di-methylthiazol-2-yl)-2,5-diphenyltetrazolium bromide) reagent was added to the well, and the resultant product was further cultured for 2 hours.
After the culturing for 2 hours, a solubilizing solution was added to the well, and formazan produced in the living cell was dissolved by pipetting. By sealing the 96-well plate and allowing the resultant product to stand in an incubator overnight at 37° C., formazan was completely solubilized. A plate reader was used to measure 570 nm (formazan dye) and 650 nm (background), and the cell viability of the well to which the test agent of each concentration was added was determined, with the cell viability of a well without the addition of a test agent being 100%.
Culturing of HeLa cells and determination of cell viability of the well were performed as in the cytotoxicity test for the compound 4, except that a test agent was prepared using the compound 10 instead of the compound 4.

From patent publication US20240174645A1, “COMPOUND, PRODUCTION METHOD THEREFOR, COMPLEX, AND SHORT WAVELENGTH INFRARED FLUORESCENT AGENT” (RIKEN, priority 2021, published 2024) come the findings set out here.

The structures appear in SMILES notation.

On to `CC1(C)C(/C=C/C=C/C=C/C=C/C=C/C=C2/N(CCCCS(=O)(=O)O)c3ccc4ccccc4c3C2(C)C)=[N+](CCCCS(=O)(=O)[O-])c2ccc3ccccc3c21` [compound 10, ICG-C11], for which the “cytotoxicity (cell viability)” value is “did not exhibit cytotoxicity”.
